The source of these data is patent US20240294467A1, “USP9X Inhibitors” (ProDeg, LLC, priority 2021, published 2024).

Where two headings read alike, the source gives them in different places.

The test system of one assay is 66 cancer cell lines. Kind of assay: ONCOLINES Profiler, whole panel. Type of assay: cell-based. Conditions: in 3 of 66 cell lines. The text has this:
The sensitivities of multiple cancer cells can be determined by screening the compounds on a cancer cell line panel, such as an ONCOLINES™ Profiler (Netherlands Translational Research Center) assayed with various tumor cell lines. For more information on ONCOLINES™ methods, see https://www.oncolines.com/oncolines/oncolines-explained-facts/. […] For example, Compound 7A inhibited the proliferation of 57 of the 66 cell lines being tested. […] “A tumor cell line sensitive to the compounds” is referred to that the proliferation of a tumor cell line, when contacted with the compounds, is inhibited by at least 50%, at least 60%, at least 70%, at least 80%, at least 85%, at least 90%, at least 91%, at least 92%, at least 93%, at least 94%, at least 95%, at least 96%, at least 97%, at least 98%, at least 99%, or 100%.
(§1) The compounds were profiled on an ONCOLINES™ Profiler (Netherlands Translational Research Center) assayed with 66 cancer cell lines to determine if they were capable of inhibiting the proliferation of these cancer cells.
(§2) To further evaluate potency of the compounds, they were compared with the USP9X inhibitor WP 1130 by screening both the compounds and WP1130 on a 66-cancer cell line panel ONCOLINES™ Profiler.

A further assay relates to BT-549. Put plainly: ONCOLINES Profiler proliferation. The format is cell-based, human. Conditions: BT-549, breast ductal carcinoma.
From the text: as §1, §2

Another assay concerns A-172. Kind of assay: ONCOLINES Profiler proliferation. The settings on record: A-172, glioblastoma. The format is cell-based.
From the text: as §1, §2

The subject of the next assay is A549. Kind of assay: ONCOLINES Profiler proliferation. Conditions: A549, lung. The format is cell-based.
From the text: as §1, §2

The test system of a further assay is BT-20. Put plainly: ONCOLINES Profiler proliferation. Conditions: BT-20, breast carcinoma. Type of assay: cell-based.
From the text: as §1, §2

The next assay deals with CCRF-CEM. Kind of assay: ONCOLINES Profiler proliferation. The format is cell-based. The settings on record: acute lymphoblastic leukemia.
From the text: as §1, §2

In another assay the test system is DU 145. Put plainly: ONCOLINES Profiler proliferation. The format is cell-based. The settings on record: DU 145, prostate carcinoma.
From the text: as §1, §2

A further assay has as its system H82. Kind of assay: ONCOLINES Profiler proliferation. The format is cell-based. Conditions: H82, small cell lung.
From the text: as §1, §2

The next assay deals with Hs 57BT. Kind of assay: ONCOLINES Profiler proliferation. The format is cell-based. The settings on record: Hs 57BT (Hs578T), breast carcinoma.
From the text: as §1, §2

A further assay has as its system LoVo. Put plainly: ONCOLINES Profiler proliferation. Type of assay: cell-based. The settings on record: colorectal adenocarcinoma.
From the text: as §1, §2

In a further assay the test system is MOLT-4. Kind of assay: ONCOLINES Profiler proliferation. Conditions: MOLT-4, acute lymphoblastic leukemia. Type of assay: cell-based.
From the text: as §1, §2

For the next assay, the system named is RKO. Kind of assay: ONCOLINES Profiler proliferation. The format is cell-based. Conditions: colon carcinoma.
From the text: as §1, §2

The subject of the next assay is RPMI-7951. Kind of assay: ONCOLINES Profiler proliferation. Type of assay: cell-based. The settings on record: RPMI-7951, malignant melanoma.
From the text: as §1, §2

The target in assay [1] is T1, USP9X (Homo sapiens (Human), UniProt Q93008). Conditions: cited from earlier work.
Target sequence in this assay (Q93008 whole entry, species assumed): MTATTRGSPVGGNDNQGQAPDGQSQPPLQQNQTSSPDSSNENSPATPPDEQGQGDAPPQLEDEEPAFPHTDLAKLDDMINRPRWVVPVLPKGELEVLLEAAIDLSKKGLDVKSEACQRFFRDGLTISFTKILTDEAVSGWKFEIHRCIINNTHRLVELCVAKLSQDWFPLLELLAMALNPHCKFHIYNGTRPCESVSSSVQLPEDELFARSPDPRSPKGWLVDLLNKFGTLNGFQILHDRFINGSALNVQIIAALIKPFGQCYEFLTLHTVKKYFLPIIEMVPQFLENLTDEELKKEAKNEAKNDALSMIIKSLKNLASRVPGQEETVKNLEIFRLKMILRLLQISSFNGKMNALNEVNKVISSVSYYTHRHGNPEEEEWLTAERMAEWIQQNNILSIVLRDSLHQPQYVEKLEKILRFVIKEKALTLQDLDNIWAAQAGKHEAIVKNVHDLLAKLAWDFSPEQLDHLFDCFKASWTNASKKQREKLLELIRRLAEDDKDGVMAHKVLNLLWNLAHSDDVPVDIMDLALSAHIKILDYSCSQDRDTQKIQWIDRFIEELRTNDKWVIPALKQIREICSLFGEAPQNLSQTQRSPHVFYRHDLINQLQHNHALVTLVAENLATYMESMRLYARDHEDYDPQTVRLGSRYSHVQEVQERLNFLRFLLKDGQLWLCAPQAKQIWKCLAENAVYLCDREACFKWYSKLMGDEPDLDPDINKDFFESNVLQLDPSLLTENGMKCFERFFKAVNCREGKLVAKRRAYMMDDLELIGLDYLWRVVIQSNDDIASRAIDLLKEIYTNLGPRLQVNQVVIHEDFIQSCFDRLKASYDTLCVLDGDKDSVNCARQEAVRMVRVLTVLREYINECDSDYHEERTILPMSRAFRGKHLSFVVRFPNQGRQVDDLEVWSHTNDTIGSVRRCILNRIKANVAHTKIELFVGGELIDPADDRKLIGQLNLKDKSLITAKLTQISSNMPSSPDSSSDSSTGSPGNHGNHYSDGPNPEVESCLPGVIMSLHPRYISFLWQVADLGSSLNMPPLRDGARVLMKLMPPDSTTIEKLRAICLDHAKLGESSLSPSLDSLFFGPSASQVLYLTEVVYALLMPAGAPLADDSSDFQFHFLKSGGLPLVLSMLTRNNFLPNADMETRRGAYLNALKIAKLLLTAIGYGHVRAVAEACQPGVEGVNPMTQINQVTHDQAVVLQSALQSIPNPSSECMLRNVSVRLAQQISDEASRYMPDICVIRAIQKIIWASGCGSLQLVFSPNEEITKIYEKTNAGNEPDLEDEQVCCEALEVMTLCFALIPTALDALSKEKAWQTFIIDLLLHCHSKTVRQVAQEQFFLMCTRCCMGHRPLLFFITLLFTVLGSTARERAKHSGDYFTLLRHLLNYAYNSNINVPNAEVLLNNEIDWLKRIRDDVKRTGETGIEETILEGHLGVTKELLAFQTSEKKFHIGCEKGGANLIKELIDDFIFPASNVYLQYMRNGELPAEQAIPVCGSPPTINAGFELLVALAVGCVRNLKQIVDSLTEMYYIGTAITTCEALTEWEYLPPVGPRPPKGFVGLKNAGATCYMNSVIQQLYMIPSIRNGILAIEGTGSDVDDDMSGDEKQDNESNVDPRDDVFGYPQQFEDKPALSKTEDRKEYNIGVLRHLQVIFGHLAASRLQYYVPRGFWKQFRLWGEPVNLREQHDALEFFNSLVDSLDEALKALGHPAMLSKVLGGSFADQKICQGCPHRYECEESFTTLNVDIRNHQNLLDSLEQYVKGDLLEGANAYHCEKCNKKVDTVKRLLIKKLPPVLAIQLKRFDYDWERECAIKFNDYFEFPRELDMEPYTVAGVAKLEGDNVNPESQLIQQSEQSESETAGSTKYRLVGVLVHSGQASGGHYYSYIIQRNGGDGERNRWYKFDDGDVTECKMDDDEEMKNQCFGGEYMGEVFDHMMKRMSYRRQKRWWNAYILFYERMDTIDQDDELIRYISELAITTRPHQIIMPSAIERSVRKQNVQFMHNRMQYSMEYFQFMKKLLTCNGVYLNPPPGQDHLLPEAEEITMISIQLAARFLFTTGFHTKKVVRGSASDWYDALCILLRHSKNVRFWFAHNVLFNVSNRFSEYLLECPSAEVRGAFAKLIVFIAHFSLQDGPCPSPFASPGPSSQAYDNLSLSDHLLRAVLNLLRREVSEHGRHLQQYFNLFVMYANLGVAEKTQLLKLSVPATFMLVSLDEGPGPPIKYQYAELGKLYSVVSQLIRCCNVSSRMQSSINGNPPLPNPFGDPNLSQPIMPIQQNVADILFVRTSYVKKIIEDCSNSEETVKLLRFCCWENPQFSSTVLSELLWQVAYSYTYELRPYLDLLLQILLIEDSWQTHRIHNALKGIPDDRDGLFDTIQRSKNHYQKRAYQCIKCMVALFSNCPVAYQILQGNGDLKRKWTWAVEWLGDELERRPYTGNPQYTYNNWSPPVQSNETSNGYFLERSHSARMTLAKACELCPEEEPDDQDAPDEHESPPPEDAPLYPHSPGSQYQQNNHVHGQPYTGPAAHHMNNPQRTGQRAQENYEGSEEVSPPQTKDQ
A further assay addresses USP5 (Homo sapiens (Human), UniProt P45974). The settings on record: cited from earlier work.
Another assay addresses USP14 (Homo sapiens (Human), UniProt P54578). Conditions: cited from earlier work.
The target in the next assay is UCH-L1 (Homo sapiens (Human), UniProt P09936). Conditions: cited from earlier work.
UCH-L1, sequence (P09936 whole entry, species assumed): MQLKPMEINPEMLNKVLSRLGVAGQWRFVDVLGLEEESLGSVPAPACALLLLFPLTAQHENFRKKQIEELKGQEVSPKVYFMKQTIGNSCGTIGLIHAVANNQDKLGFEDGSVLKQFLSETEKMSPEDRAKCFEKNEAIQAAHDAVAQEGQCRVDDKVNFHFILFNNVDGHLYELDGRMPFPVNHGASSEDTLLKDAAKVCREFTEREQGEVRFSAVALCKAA
The target of another assay is UCH37 (Homo sapiens (Human), UniProt Q9Y5K5). The settings on record: cited from earlier work.
UCH37, sequence (Q9Y5K5 whole entry, species assumed): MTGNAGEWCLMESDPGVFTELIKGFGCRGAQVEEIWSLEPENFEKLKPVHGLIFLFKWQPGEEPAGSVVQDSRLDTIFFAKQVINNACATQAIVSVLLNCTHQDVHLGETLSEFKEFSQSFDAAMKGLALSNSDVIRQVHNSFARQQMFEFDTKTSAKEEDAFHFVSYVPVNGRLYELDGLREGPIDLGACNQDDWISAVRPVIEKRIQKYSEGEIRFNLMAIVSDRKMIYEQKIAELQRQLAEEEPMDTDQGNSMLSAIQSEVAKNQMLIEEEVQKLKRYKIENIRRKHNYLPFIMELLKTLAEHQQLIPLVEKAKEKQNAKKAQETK
The target of assay [2] is T1, USP9X. Kind of assay: Biacore T200 surface plasmon resonance binding to immobilized USP9X. The settings on record: 25° C. The text has this: The terms “inhibit” as used herein with respect to the activity of the USP9X inhibitor, refer to the ability to substantially antagonize, prohibit, prevent, restrain, slow, disrupt, alter, eliminate, stop, or reverse the progression or severity of, for example, the catalytic activity of a DUB such as USP9X, the survival or proliferation of a cancer cell, or a disease or condition associated with USP9X. […] In some embodiments, the compounds as described can inhibit USP9X by binding to an active site of USP9X. […] The binding activity is determined with a standard binding assay, such as a Biacore surface plasmon resonance instrument. […] The binding affinity KD is determined using a Biacore T200 instrument (GE Healthcare, Biacore). Ubiquitin aldehyde can be used as a reference in analyzing the inhibition results determined via Biacore. […]
USP9X was immobilized on a chip for surface plasmon resonance measurements via Biacore T200. Solutions of compound Compound 2A at various concentrations were flowed over the immobilized USP9X and the change in refractive index was monitored. […] The values of the maximum response for each concentration of Compound 2A were plotted and were consistent with a binding of the compound to a single site on USP9X with a dissociation equilibrium constant of 1.9 μM in reasonable agreement with value determined from the kinetic association and dissociation rates.
Target sequence in this assay (Q93008 whole entry): as the sequence (Q93008 whole entry, species assumed) above
Background: SPR reads the build-up and loss of mass on a sensor chip optically.

The next assay concerns carbonic anhydrase. Put plainly: Biacore binding to immobilized carbonic anhydrase (non-specific binding control).
Assay [3] concerns the target T1, USP9X. Kind of assay: Steady-state enzyme inhibition kinetics of USP9X. The format is biochemical. The source says: The data were fit to a general model for enzyme inhibition (FIG. 1E) so the values of the parameters determined from the assays specified the mode of inhibition. For example, in the case of α=1 and β=0, it corresponded to purely non-competitive inhibition. For α=infinity and p=1, it corresponded to purely competitive inhibition. The values of all the parameters, KS, KI, kcat, α, and β could be determined from the steady state measurements. The enzyme reactions were set up as described in the Inhibiting the catalytic activity of USP9X section. The concentration of the substrate ubqiutin-rhodamine110 was varied. The initial rates of the reactions were determined at several concentrations of the inhibitor Compound 2A. In order to determine the values of the parameters KS and kcat, the reaction rates in the absence of the inhibitor Compound 2A, the initial reaction rate data were fit to the standard Michaelis-Menten equation v=Vmax [S]/(Km+[S]). The values of α and β could then be determined by fitting the initial rate data of the enzyme reaction at various concentrations of Compound 2A to a modified version of the Michaelis-Menten equation, designating both Vmax and KS apparent to distinguish the apparent values of the parameters determined from these plots to the true values for these parameters determined from the steady state kinetics in the absence of Compound 2A. The values of α and β could be determined from the variation of the slopes and intercepts of the series of double reciprocal plots of 1/v versus 1/[S] for each concentration of Compound 2A. […] The two values determined for KI were from the two different plots.
The two values for KI were determined by two different methods for determining this parameter from the kinetic data: 1 represented a value determined from the slope of the 1/A intercept vs 1/[I] plot; 2 represented a value determined from the y intercept of the 1/A slope vs 1/[I] plot. […] Only the values of the parameters varied for the compounds.
Target sequence in this assay (Q93008 whole entry): as the sequence (Q93008 whole entry, species assumed) above

Assay [4] concerns the target T1, USP9X. Kind of assay: USP9X enzyme activity assay, ubiquitin-rhodamine110 substrate.
Target sequence in this assay (Q93008 whole entry): as the sequence (Q93008 whole entry, species assumed) above
Procedure: The inhibition property of compound Compound 1A was evaluated in assays measuring the ability of USP9X to catalyze the hydrolysis of the amide bond between the C terminal carboxylate of ubiquitin and rhodamine110 of the fluorogenic substrate ubiquitin-rhodamine 110. To the wells of a 96 well reaction plate was added 12.5 μL USP9X solution (1.3 nM) in assay buffer (100 mM NaCl, 1 mM DTT, 0.1% bovine serum albumin, 0.05% Tween 20, 50 mM Tris, pH 7.5). 12.5 μL of Compound 1A in assay buffer (4×final concentration) was added to the wells containing the USP9X solution, and the solution was gently mixed by pipetting up and down several times. The plate was sealed and incubated at room temperature for 20 minutes.
Then 25 μL of the 1 μM substrate (ubiquitin-rhodaminel10) solution was added in assay buffer. The final substrate concentration was 0.5 μM. […] The slope for the rate of change of the fluorescence was determined and plotted vs the concentration of Compound 1A.
USP9X enzyme assays were set up in a 96 well plate to assess the abilities of Compound 3A and Compound 4A to inhibit the activity of USP9X, respectively. Ubiquitin-rhodamine110 was used as the substrate and ubiquitin aldehyde was included in the assay as a positive control.
Purified recombinant USPx9 (R&D Systems) in 50 mM Tris buffer pH 7.5, 1 mM DTT, 100 mM NaCl, 0.05% Tween 20 and 0/1% BSA is used at a concentration of 0.325 nM with 0.5 μM ubiquitin-rhodamine (R&D Systems).

USP5, sequence (P45974 whole entry, species assumed): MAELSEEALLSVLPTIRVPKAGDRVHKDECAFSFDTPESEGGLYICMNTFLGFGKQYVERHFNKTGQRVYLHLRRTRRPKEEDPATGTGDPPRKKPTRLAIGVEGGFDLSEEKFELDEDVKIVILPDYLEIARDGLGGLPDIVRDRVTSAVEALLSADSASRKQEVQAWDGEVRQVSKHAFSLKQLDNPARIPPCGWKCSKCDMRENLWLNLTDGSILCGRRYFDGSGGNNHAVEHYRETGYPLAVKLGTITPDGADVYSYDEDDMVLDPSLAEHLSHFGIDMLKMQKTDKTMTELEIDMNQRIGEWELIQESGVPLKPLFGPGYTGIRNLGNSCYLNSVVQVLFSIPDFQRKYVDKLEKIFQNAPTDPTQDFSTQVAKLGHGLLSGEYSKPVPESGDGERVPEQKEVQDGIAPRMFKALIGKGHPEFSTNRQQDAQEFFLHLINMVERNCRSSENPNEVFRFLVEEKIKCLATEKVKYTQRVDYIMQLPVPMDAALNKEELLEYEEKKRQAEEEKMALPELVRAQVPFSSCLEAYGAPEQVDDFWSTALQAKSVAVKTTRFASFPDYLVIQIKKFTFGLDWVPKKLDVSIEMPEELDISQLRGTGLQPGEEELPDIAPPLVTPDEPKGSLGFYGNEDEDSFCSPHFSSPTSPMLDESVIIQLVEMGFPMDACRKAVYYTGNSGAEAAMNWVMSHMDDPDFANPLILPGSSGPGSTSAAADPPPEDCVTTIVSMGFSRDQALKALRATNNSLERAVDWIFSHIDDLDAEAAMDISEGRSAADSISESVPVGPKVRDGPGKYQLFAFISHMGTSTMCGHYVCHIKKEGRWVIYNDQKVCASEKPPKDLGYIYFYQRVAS
USP14, sequence (P54578 whole entry, species assumed): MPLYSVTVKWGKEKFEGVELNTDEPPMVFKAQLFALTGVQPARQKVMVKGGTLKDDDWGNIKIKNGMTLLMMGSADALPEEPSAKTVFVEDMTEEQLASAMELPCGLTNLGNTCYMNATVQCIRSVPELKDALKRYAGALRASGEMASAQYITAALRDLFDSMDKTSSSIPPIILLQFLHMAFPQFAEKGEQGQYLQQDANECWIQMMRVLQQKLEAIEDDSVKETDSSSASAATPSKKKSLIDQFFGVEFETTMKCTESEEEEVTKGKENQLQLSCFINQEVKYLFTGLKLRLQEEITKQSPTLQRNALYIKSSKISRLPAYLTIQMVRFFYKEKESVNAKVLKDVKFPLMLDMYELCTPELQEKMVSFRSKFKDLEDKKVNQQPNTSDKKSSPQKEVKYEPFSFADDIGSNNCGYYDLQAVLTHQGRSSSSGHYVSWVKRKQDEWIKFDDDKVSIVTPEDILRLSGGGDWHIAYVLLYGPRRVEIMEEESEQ

One may read the IC50 as the concentration that inhibits the measured activity by half. Regarding `CCC[C@H](NC(=O)/C(C#N)=C/c1cccc(Br)n1)c1ccccc1` [WP1130, reference compound], the “fold more potent than Compound 7A” value in the assay with 66 cancer cell lines is on record as “above 4 fold”. Moreover, the 50% inhibitory concentration (IC50) with BT-549 is 5.4 µM; with A-172, 5.6 µM; in the assay with A549, 14 µM; with BT-20 it was 5.1 µM; in the assay on CCRF-CEM, 4.4 µM; in the assay with DU 145 it was 9.6 µM. In addition, the concentration for half-maximal inhibition (IC50) in the assay with H82 amounted to 6.6 µM; in the assay with Hs 57BT it was 6.3 µM; in the assay with LoVo it was 5.5 µM; in the assay with MOLT-4, 4 µM; in the assay with RKO, 4.3 µM; with RPMI-7951 it was 4.2 µM. Besides, at USP9X [1], the “inhibits USP9X” value is on record as “inhibited”. For the same molecule, on USP5, the “inhibits USP5” value is “inhibited”. The “inhibits USP14” value on USP14 was “inhibited”. The “inhibits UCH-L1” value at UCH-L1 is given as “inhibited”. For the same molecule, at UCH37, the “inhibits UCH37” value is “inhibited”.

By Ki is commonly meant the dissociation constant of the complex between target and ligand, obtained from inhibition or displacement. For `CC(C)(C)C[C@@H]1NC(=O)c2cccc(c2)CNC(=O)c2ccc(cc2)OCCNC(=O)CC(C)(C)CC(=O)N[C@H](C(=O)O)Cc2ccc(cc2)NC1=O` [Compound 2A], on USP9X [2] (read-out: dissociation equilibrium constant from maximum response vs concentration, single site), the Kd was 1.9 µM. Further, the Kd at USP9X [2] (read-out: equilibrium dissociation constant KD from ratio of dissociation to association rate constant) stood at 0.48 µM. For the same molecule, the “binding to immobilized carbonic anhydrase” value in the assay on carbonic anhydrase is listed as “did not bind”. Also, on USP9X [3], the “KS” value came out at 0.95 µM, the “VMAX RFU/min” value was found to be 310 RFU/min, the mode of inhibition entry is recorded as “hyperbolic mixed inhibition” and the α came out at 1.73. Further, the β on USP9X [3] was determined as 0.71. For the same molecule, the Ki on USP9X [3] (from the slope of the 1/Δ intercept vs 1/[I] plot, read-out: KI, nM (1)) is 120 nM. The Ki at USP9X [3] (from the y intercept of the 1/Δ slope vs 1/[I] plot, read-out: KI, nM (2)) stood at 290 nM. In addition, the “reduction of USP9X activity” value at USP9X [4] (higher concentrations of compound (>10 μM)) is “approximately 60%”. For the same molecule, the concentration for half-maximal inhibition (IC50) at USP9X [4] (read-out: IC50 for the inhibition of USP9X activity, ubiquitin-rhodamine110 substrate) was determined as 390 nM. Further, at USP9X [4] (read-out: USP9X IC50 nM, Table 2), the IC50 is 390 nM.
